This test has as its system pCREB. Description: Nuclear pCREB, pTrkA and pErk5 immunofluorescence after axonal NGF in compartmented cultures. It counts as cell-based, rat. The conditions noted are these: 30 ng/ml NGF on axons, 20 min. The source says:
FIGS. 9A-E are data showing that axonal CREB is required for CRE-dependent transcription and NGF-mediated DRG survival. (A) DRG axons in compartmented cultures were transfected with CREB siRNA in the axon compartment only, and CREB levels were detected using a CREB antibody. Axons crossing the compartment divider were retrogradely labeled with WGA-Alexa488. All compartments were maintained in NGF-containing media throughout the experiment. Scale bar, 50 μm. (B) Quantification of data in (A). Immunofluorescence levels in each compartment were normalized to fluorescence signals from cultures treated with non-targeting siRNA. *p<0.0001. Numbers on bars represent n axons per condition. […] After 48 hours, 30 ng/ml NGF was added to the axon compartment for 20 min, after which pCREB levels in nuclei were quantified by immunofluorescence. *p=0.0004. […]
FIGS. 10A-G are data showing selective CREB knockdown in distal axons, but not proximal axons determined by compartmentalized siRNA transfection. […] (B) Quantification of data in (A). FISH levels in each compartment were normalized to fluorescence signals from cultures treated with non-targeting siRNA. β-actin mRNA FISH signals were unaffected by CREB-specific siRNA. *p<0.001. […] (C) Transfection was as in FIG. 9A, except CREB knockdown was assessed by Western blot instead of immunofluorescence. […]

Here are results for 1 substance from US12103952B2, “Methods for expressing proteins in axons” (Cornell University, priority 2010, dated 2024).

With NGF: nerve growth factor, the “levels of pCREB in the nucleus” value is “increased levels of pCREB in the nucleus”.
